Publication PMC12546632, “The role of cytochrome bc1 inhibitors in future tuberculosis treatment regimens” (Nature Communications, 2025)
Converted amounts (≈) assume the structure as drawn. “And” between values parts separate entries of the source, which are not always exact repeats. Identical values can stand only once. Like-named read-outs stand apart in the source and are kept apart here.

What was measured:
WT H37Rv = format: cell-based, Mycobacterium tuberculosis; details: biological replicates
N1283 clinical isolate = format: cell-based, Mycobacterium tuberculosis; details: biological replicates
[1] = test system: M. tuberculosis ΔcydAB (Parent); test: microbe, parasite or virus in culture; format: cell-based; details: Mycobacterium tuberculosis
M. tuberculosis HN878 = details: telacebec added to BPaC, after 4 weeks of treatment; cited from earlier work

SMILES: CCc1nc2ccc(Cl)cn2c1C(=O)NCc1ccc(N2CCC(c3ccc(OC(F)(F)F)cc3)CC2)cc1 [telacebec, reference compound]
- CFU counts (WT H37Rv; Conc 8 nM): 30000000 CFU and 50000000 CFU
- CFU counts (WT H37Rv; Conc 32 nM): 19000000 CFU and 32000000 CFU and 49500000 CFU
- CFU counts (WT H37Rv; Conc 128 nM): 20000000 CFU and 17000000 CFU and 41500000 CFU and 12000000 CFU
- CFU counts (N1283 clinical isolate; Conc 8 nM): 16000000 CFU and 19000000 CFU and 60000000 CFU and 40000000 CFU
- CFU counts (N1283 clinical isolate; Conc 32 nM): 130000 CFU and 900000 CFU and 7000000 CFU and 8000000 CFU
- CFU counts (N1283 clinical isolate; Conc 128 nM): 180000 CFU and 380000 CFU and 120000 CFU and 150000 CFU
- MIC50 [1]: 0.01 µM (≈ 5.57 ng/mL)
- reduction in lung bacterial burden compared to BPaC alone (M. tuberculosis HN878): 2 log
